Source: patent US20070282004A1, “Use of a Cyclopentenone Prostaglandin for Delaying for the Onset and/or Preventing the Continuation of Labour” (Imperial College Innovations Limited, priority 2003, published 2007)
Residues, ends and D or L forms follow the SMILES beside them. *: point of attachment. Cbz = O=C(OCc1ccccc1)*

Assays:
PPAR-γ = target: T1, PPAR-γ (Homo sapiens, UniProt P37231); details: as stated from the literature; cited from earlier work
T1 sequence (P37231 1-505): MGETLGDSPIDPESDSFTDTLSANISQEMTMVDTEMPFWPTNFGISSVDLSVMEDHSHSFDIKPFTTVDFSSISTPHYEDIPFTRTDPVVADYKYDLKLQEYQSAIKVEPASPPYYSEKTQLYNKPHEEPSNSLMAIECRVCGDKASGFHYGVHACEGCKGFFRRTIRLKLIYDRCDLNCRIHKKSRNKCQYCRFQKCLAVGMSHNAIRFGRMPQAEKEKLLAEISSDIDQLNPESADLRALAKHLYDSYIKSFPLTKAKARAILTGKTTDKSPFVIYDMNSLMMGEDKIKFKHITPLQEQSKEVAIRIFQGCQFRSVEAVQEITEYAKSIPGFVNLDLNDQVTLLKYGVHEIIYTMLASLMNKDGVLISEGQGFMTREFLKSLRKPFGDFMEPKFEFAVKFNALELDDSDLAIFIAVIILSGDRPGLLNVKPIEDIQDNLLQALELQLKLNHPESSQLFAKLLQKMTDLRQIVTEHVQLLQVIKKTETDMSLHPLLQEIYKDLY

NF-κB [1] = test: Western immunoblot of p65, p50, IκB in myometrial cell extracts; assay type: cell-based, human; details: myometrial cells, IL-1β 15 min
Experimental: (§1) Western immunoblots of nuclear or cytosolic protein extracts from (A) myometrial cells, (B) L− amnion cells, and (C) L+ amnion cells treated with 15dPGJ2 or vehicle for 2 h±IL-1β stimulation (15 min). Blots probed with antibodies against p65, p50 or IκBα.
Western immunoblots of nuclear or cytosolic protein extracts from myometrial cells treated with PGA1 or vehicle for 2 h followed by IL-1β stimulation (15 min). Blots probed with antibodies against p65 or IκBa.
Western immunoblots of cytosolic extracts from myometrial cells (A) treated with 15dPGJ2 for 2h±IL1b for 15 min; probed for IKK, and (B) treated with […] 15dPGJ2, […] MG132 or vehicle for 2 h, ±IL-1β for 15 min; probed for IκBα.
(A) NF-κB-DNA binding was measured by EMSA in nuclear protein extracts from myometrial cells pre-treated with vehicle, 15d-PGJ2 or PGA1 for 2 h, followed by stimulation with IL-1β (1 ng/ml) for 15 min. Antibodies against p50 and p65 were used for supershift analysis. (B) Myometrial cells were transiently transfected with a NF-κB-LUC reporter and a β-gal reporter plasmid, pre-treated with vehicle or PGA1 for 2 h, and stimulated with IL-1β (1 ng/ml) for 6 h. Luciferase activity was normalized for β-gal reporter readout. Values are presented as the mean±SEM obtained for each treatment done in triplicate. Western blot analysis of nuclear p65 and p50 expression in myometrial cells treated with (C) PGA1 or (D) 15d-PGJ2 for 2 h, followed by stimulation with IL-1β (1 ng/ml) for 15 min. (E) Western blot analysis of whole cell lysates from myometrial cells treated with 15d-PGJ2 or 9,10-dihydro-15d-PGJ2 for 2 h, followed by stimulation with IL-1β (1 ng/ml) for 15 min. Membranes were probed with antibodies against p65 and Ser 536-phosphorylated p65.
(§2) Myometrial tissue was collected at term from the upper margin of uterine incision at the time of lower segment caesarean section either prior to the onset of labour (L−) or […] (L+). L+ samples were collected by Dr Mark Johnson and Dr S Soorrana at Chelsea & Westminster Hospital. Myometrial tissue was dissected, rinsed in PBS, and digested in serum-free DMEM containing 15 mg/ml collagenase 1A (Sigma), 15 mg/ml collagenase X, and 50 mg/ml bovine serum albumin for 45 min at 37° C. The cell suspension was filtered through a cell strainer, centrifuged at 400 g for 5 min, and the pellet re-suspended and plated out in DMEM, 10% FCS (Helena BioScience), 1% L-glutainine, 1% penicillin-streptomycin. Cells were used between passage numbers 1-4.
(§3) Nuclear and cytosolic protein extracts were obtained from cultured amnion cells as described by Schreiber et al (1989). For nuclear/cytosolic fractionation, confluent cell monolayers were scraped and lysed using a buffer containing 10 mM HEPES, 10 mM KCl, 0.1 mM EDTA, 0.1 mM EGTA, 2 mM DTT, 1% (v/v) NP-40 and complete protease inhibitor tablets (CPIs, Roche), diluted to manufacturer's instructions. Cell lysates were incubated on ice for 10 min and NP-40 added to a final concentration of 1% (v/v). Lysates were vortexed for 10 secs and centrifuged for 30 secs at 4° C., 12000 g. The supernatants were retained as the cytosolic protein extracts. The pellets were resuspended in buffer containing 10 mM HEPES, 10 mM KCl, 0.1 mM EDTA, 0.1 mM EGTA, 2 mM DTT, 400 mM NaCl, 1% NP-40 (v/v) and CPIs. Samples were shaken vigorously for 15 min in an ice bath. The nuclear protein extracts were obtained in the supernatant following a 5 min centrifugation at 4° C., 12000 g.
Protein samples (20-70 μg) were mixed with Laemmli sample buffer (1:1) containing β-mercaptoethanol (5%), and boiled for 5 min. Proteins were then separated by SDS-PAGE (12-14% gels) and transferred onto PVDF membrane (Amersham Pharmacia Biotech). The membranes were blocked overnight in 5% non-fat milk prepared in PBS-T buffer, at 4° C. The blots were incubated with the primary antibody in 1% non-fat milk in PBS-T buffer for 1 h, and washed three times (10 min each) in PBS-T with vigorous shaking. […]

NF-κB [2] = target: T2, NF-κB (Homo sapiens, UniProt P19838+Q04206); test: EMSA of NF-κB DNA binding in nuclear extracts of treated myometrial cells; assay type: cell-based; details: myometrial cells; for Stimulation of NF-κB activity / induction of NFκB DNA binding by the compound alone: no cytokine; for IL-1β-induced NF-κB DNA binding (EMSA): then IL-1β 15 min
T2 construct: nuclear protein extracts from myometrial cells; endogenous in cells; host or cells: primary human myometrial cells (term, passage 1-4)
Experimental: as §2, §3
(§4) Sense and antisense strands (175 nmole/ml each) were incubated in annealing buffer (10 mM Tris-HCl pH7.5, 100 mM NaCl, 1 mM EDTA) for 10 min at 65° C., and allowed to cool at room temperature for 2 h. 3.5 pmole double-stranded oligonucleotides were end-labelled with 0.37 MBq ^32P(γATP) by incubating for 30 min at 37° C. with T4 polynucleotide kinase. Labelled oligonucleotides were recovered by centrifugation at 3000 rpm for 2 min through MicroSpin G-25 or G-50 sephadex columns (Amersham Biosciences).
(§5) 3-5 μg protein extracts were incubated on ice for 1 h with non-radiolabelled non-specific oligonucleotide (poly(dI-dC) or Oct-1) in a binding buffer (20% (v/V) glycerol, 5 mM MgCl2, 2 mM EDTA, 50 mM Tris-HCl pH7.5, 250 mM NaCl, 2 mM DTT), followed by a 45 min incubation with 0.035 pmole ^32P(γ(ATP)-end labelled oligonucleotide probes:
(§6) Oct-1 or SP-1 consensus sequences were used as a controls for a NF-κB-specific effect. The resulting protein/DNA complexes were separated in a 4% acrylamide gel, the gel dried under vacuum at 80° C. and exposed to X-ray film. For supershift analysis, samples were incubated with 2 μg antibodies for 30 min on ice prior to incubation with oligonucleotides. Non-radio-labelled oligonucleotides were used at 100-fold molar excess for specific and non-specific competition for DNA binding. Reagents for EMSA were obtained from Promega Life Sciences, Delta House, Chilworth Research Centre, Southampton SO16 7NS, United Kingdom.

NF-κB [3] = test: Western immunoblot of p65, p50, IκB in amnion cell extracts; assay type: cell-based, human; details: L−, L+ amnion cells, treated 2 h, IL-1β 15 min
Experimental: as §1
(§7) Placentae were obtained from patients at term either at elective Caesarean section prior to labour (L−) or following spontaneous labour onset and vaginal delivery (L+). Amnion cells were prepared as described in Bennett et al., (1989). Briefly, the amnion was separated from the placenta, washed 3× in PBS, cut into strips, and incubated in 0.5 mM EDTA in PBS for 15 min. The strips were washed in PBS 2× and digested with 2.5 mg/ml dispase in serum-free DMEM for 35 min at 37° C. The amnion was then shaken vigorously in DMEM, 10% FCS to dissociate the cells, the remaining strips discarded, and the cell suspension pelleted at 175 g for 10 min and cultured in DMEM, 10% FCS (Sigma), 1% L-glutamine, 1% penicillin-streptomycin.
as §3
Protein samples (20-70 μg) were mixed with Laemmli sample buffer (1:1) containing β-mercaptoethanol (5%), and boiled for 5 min. Proteins were then separated by SDS-PAGE (12-14% gels) and transferred onto PVDF membrane (Amersham Pharmacia Biotech). The membranes were blocked overnight in 5% non-fat milk prepared in PBS-T buffer, at 4° C. The blots were incubated with the primary antibody in 1% non-fat milk in PBS-T buffer for 1 h, and washed three times (10 min each) in PBS-T with vigorous shaking. The blots were then incubated with HRP-conjugated secondary antibody (diluted 1:2000 in 1% non-fat milk in PBS-T buffer) for 1 h and washed three times (10 min each) in PBS-T. Signal detection was achieved using enhanced chemi-luminescence (ECL plus system, Amersham Pharmacia Biotech) according to manufacturer's instructions.
30-50 μg protein extracts were subjected to SDS-PAGE and Western immuno-blotting. Secondary antibodies were IgG-HRP and ECL Plus detection kit (Amersham Pharmacia Biotech, Amersham Place, Little Chalfont, Bucks, HP7 9NA) was used for visualisation.

NF-κB [4] = target: T2, NF-κB; test: EMSA of NF-κB DNA binding in nuclear extracts of treated amnion cells; assay type: cell-based
Experimental: as §7, §3, §4, §5, §6

NF-κB [5] = test: NF-κB-dependent luciferase reporter (κB.BG.Luc) in myometrial cells; assay type: cell-based, human; details: treated 2 h, IL-1β 1 ng/ml 6 h
Experimental: Myometrial cells were transiently transfected with the NFκB-dependent reporter construct κB.BG.Luc, treated with 15dPGJ2 or vehicle for 2 h, ±IL-1β (1 ng/ml) for 6 h. […] Values are normalised for b-gal reporter activity. (NS=nonstimulated).
Myometrial cells were transfected with […] κB.BG.Luc reporter and 200 ng PPAR-γ expression vector and treated with 15d-PGJ2 for 2 h followed by IL-1β (1 ng/ml) for 6 h. Values are normalised for β-galactosidase reporter activity. (NS=nonstimulated).
as §2
pGL3.6κB.BG.luc: a NF-κB-dependent reporter construct with 6 copies of the NF-κB binding site.
Cells were co-transfected with the renilla vector pRL-CMV or β-galactosidase vector pCH110 as internal controls for transfection efficiencies.

[6] = tested on: contractions of pre-term labour; details: people; cited from earlier work
[7] = tested on: ductus arteriosus, fetal urine output; details: in vivo; cited from earlier work
NF-κB [8] = test: NF-κB-dependent luciferase reporter (κB.BG.Luc) in myometrial cells; assay type: cell-based, human; details: 200 ng PPAR-γ expression vector, 10 mM troglitazone 7 h, IL-1β 17 h

T2 sequence (Q04206 whole entry): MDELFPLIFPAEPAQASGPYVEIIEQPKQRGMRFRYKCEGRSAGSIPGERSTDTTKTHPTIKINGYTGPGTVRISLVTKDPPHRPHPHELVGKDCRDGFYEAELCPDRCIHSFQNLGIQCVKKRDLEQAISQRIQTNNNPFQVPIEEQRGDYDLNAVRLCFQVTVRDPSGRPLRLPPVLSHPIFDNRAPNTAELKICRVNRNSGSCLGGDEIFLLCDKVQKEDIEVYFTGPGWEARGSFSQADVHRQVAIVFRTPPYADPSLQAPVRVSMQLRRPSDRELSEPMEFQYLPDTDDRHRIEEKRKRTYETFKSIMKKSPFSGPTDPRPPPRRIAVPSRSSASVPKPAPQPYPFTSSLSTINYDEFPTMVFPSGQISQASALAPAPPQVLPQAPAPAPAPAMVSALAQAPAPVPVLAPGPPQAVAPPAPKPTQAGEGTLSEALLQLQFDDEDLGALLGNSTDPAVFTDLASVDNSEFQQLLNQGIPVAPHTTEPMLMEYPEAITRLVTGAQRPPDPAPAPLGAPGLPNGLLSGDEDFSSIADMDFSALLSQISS
T2 sequence (P19838 1-433 limits assumed): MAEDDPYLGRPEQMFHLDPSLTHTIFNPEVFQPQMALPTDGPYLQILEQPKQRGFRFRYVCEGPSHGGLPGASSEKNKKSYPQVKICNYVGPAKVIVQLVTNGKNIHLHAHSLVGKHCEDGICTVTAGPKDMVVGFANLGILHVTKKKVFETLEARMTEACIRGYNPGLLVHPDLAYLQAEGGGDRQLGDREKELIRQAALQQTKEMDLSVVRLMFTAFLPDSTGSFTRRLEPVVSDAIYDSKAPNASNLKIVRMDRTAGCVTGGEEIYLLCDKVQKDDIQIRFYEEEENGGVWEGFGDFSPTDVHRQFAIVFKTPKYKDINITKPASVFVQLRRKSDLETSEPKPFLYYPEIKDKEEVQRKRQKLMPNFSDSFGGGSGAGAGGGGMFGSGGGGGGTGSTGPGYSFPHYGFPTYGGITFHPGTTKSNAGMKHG

CCCCCC=CC=C1CCC(=O)C1CC=CCCCC(=O)O (centres unmarked) [9,10-dihydro-15d-PGJ2, 9,10-di-hydro-15-deoxy-Δ^12,14-Prostaglandin J2, reference compound]
PPAR agonist / ligand activity (PPAR-γ): retains PPARγ agonist activity
Reproduction of the effects of 15d-PGJ2 on NF-κB (incl. Ser 536-phosphorylated p65) (NF-κB [1]; 2 h, similar in amnion epithelial cells): could not reproduce the effects

CCCCC(C)(C)[C@H](O)/C=C/[C@H]1[C@H](O)CC(=O)[C@@H]1C/C=C\CCCC(=O)O [16,16-Dimethyl-PGE2, reference compound]
Synergy with IL-1β or TNFα on NF-κB activity (NF-κB [2]): nor did it synergise
Stimulation of NF-κB activity / induction of NFκB DNA binding by the compound alone (NF-κB [2]): neither did it stimulate
IL-1β-induced NF-κB DNA binding (EMSA) (NF-κB [2]; treated 2 h): did not inhibit
IL-1β-induced p65 nuclear translocation (NF-κB [3]): did not inhibit
IL-1β-induced p65 nuclear translocation (NF-κB [1]; treated 2 h): did not inhibit
IL-1β-induced NF-κB DNA binding (EMSA) (NF-κB [4]; L− and L+ amnion cells, treated 2 h, then IL-1β 15 min): did not inhibit

CN(CCOc1ccc(C[C@H](Nc2ccccc2C(=O)c2ccccc2)C(=O)O)cc1)c1ccccn1 [GW1929, reference compound]
IL-1β-induced NF-κB DNA binding (EMSA) (NF-κB [2]; treated 2 h): failed to inhibit
IL-1β-induced NF-κB transcriptional activity (κB.BG.Luc reporter) (NF-κB [5]): does not inhibit

COc1ccc2c(c1)c(CC(=O)O)c(C)n2C(=O)c1ccc(Cl)cc1 [Indomethacin]
Tocolytic efficacy [6]: effective in preventing the contractions

CC(C)C[C@@H](C=O)NC(=O)[C@H](CC(C)C)NC(=O)[C@H](CC(C)C)NC(=O)OCc1ccccc1 [MG132, reference compound] (Cbz-Leu-Leu-Leu-aldehyde)
Accumulation of phosphorylated IκBα (NF-κB [1]; 2 h): resulted in the accumulation

CCCCC[C@H](O)/C=C/[C@H]1[C@H](O)CC(=O)[C@@H]1C/C=C\CCCC(=O)O [PGE2, prostaglandin E2, reference compound]
Stimulation of NF-κB activity / induction of NFκB DNA binding by the compound alone (NF-κB [2]): does not induce
TNFα- and IL-1β-induced NFκB activation (EMSA, nuclear p65) (NF-κB [2]; treated 2 h, TNFα or IL-1β 15 min): does not inhibit
PPAR agonist / ligand activity (PPAR-γ): does not activate PPAR-γ
Induction of NFκB DNA binding by the compound alone (NF-κB [4]; L− amnion cells, no cytokine): does not induce

CC1=C(CC(=O)O)c2cc(F)ccc2/C1=C\c1ccc([S+](C)[O-])cc1 (centres unmarked) [Sulindac]
Effect on ductal patency [7]: minimal effect
Fetal urine output [7]: smaller reduction
Tocolytic efficacy [6]: equally good

Cc1c(C)c2c(c(C)c1O)CCC(C)(COc1ccc(CC3SC(=O)NC3=O)cc1)O2 (centres unmarked) [troglitazone]
NF-κB-dependent reporter in PPARγ-transfected cells (NF-κB [8]): does not inhibit
